Measurements from patent US11117931B2, “Antimicrobial peptide derived from Hp1404 peptide and uses thereof” (priority 2017, dated 2021).
Where no end group is shown, it is not given here.

Tests used:
[1] = Cytotoxicity in normal cell line (MTT); type: cell-based; settings: human, HaCaT keratinocytes, read-out: Cell survival ability; for viability at 24 h, 6.25 µM: peptide concentration 6.25 μM; for viability at 24 h, 12.5 µM: peptide concentration 12.5 μM; for viability at 24 h, 25 µM: peptide concentration 25 μM; for viability at 24 h, 50 µM: peptide concentration 50 μM; for viability at 24 h, 100 µM: peptide concentration 100 μM; for viability at 24 h, 200 µM: peptide concentration 200 μM, HaCaT
Procedure: To determine the cytotoxicity of the peptide produced by the method of Example 1 in normal cell line, toxicity was measured by using human keratinocytes (HaCaT cell line, Dr. N E. Fusenig, Heidelberg, Germany).
Specifically, HaCaT cells which have been cultured in DMEM medium containing 10% FBS (Fetal Bovine Serum) were aliquoted in a 96-well plate to have 2×10^5 cells per well. After culturing them for 24 hours, the cells were subjected to a treatment with Hp1404, Hp1404-T1, Hp1404-T1a, Hp1404-T1b, Hp1404-T1c, Hp1404-T1d, or Hp1404-T1e, each at concentration of 6.25, 12.5, 25.0, 50.0, 100.0 or 200.0 μM/well, followed by reaction for 24 hours in a 5% CO2 incubator. After 24 hours, a reaction solution containing 0.5 mg/ml MTT (Thiazolyl Blue Tetrazolium Bromide) dissolved in physiological saline (PBS) was added in an amount of 100 μl to each well and the reaction was allowed to occur for 4 hours. After that, the supernatant was removed, and, by dissolving MTT crystals that are formed by adding 200 μl of DMSO (dimethyl sulfoxide), the absorbance at 560 nm was measured to determine the cell survival ability.

L. monocytogenes = assay: MIC, L. monocytogenes; type: cell-based, Listeria monocytogenes; settings: L. monocytogenes (KCTC 3710), 18 hours at 37° C.
Excerpt: (§1) To compare the antimicrobial activity among the peptides produced by the method of Example 1, the inventors of the present invention measured the minimal growth inhibitory concentration (MIC), which is minimum concentration of the peptide showing no dissociation of bacterial cells.
(§2) Specifically, the bacterial strain described in the following Table 2 was purchased and cultured to a mid-log phase in each medium with a composition suitable for each strain. Then, after dilution to bacterial cell concentration of 2×10^4 cells/100 μl, the cells were inoculated to a microtiter plate (NUNC, USA). Thereafter, Hp1404-T1, Hp1404-T1a, Hp1404-T1b, Hp1404-T1c, Hp1404-T1d or Hp1404-T1e peptide which has been synthesized in Example 1 above was subjected to serial dilution, ½ times for each, with BSA (bovine serum albumin) solution in a 96-well plate. After adding the cells to a plate, the cells were cultured for 18 hours at 37° C. By using a microtiter plate reader (Merck Elisa reader, Germany), the absorbance was measured at a wavelength of 600 nm to determine the MIC value of each bacterial strain. As a control group, Hp1404 as a mother peptide was used.

E. coli = assay: MIC, E. coli; type: cell-based, Escherichia coli; settings: E. coli (ATCC 25922), 18 hours at 37° C.
Excerpt: as §1, §2

[2] = system: erythrocytes of a mouse (Balb/c); assay: Hemolytic activity; type: cell-based
Procedure: To compare the cytotoxicity among the peptides that are produced by the method of Example 1, erythrocyte hemolytic activity of the synthesized peptide was measured.
Specifically, erythrocytes of a mouse (Balb/c, 6 week old, female) were diluted in physiological saline (PBS, pH 7.0) to have concentration of 8%, and then subjected to a treatment with Hp1404, Hp1404-T1, Hp1404-T1a, Hp1404-T1b, Hp1404-T1c, Hp1404-T1d or Hp1404-T1e, each at concentration of 6.25, 12.5, 25.0, 50.0, 100.0 and 200.0 μM/well, respectively, followed by a reaction for 1 hour at 37° C. After that, the amount of hemoglobin contained in a supernatant collected by centrifuge at 1,000×g was determined by measuring the absorbance at a wavelength of 414 nm. As a control group to be used as a reference for cell disruption level, the supernatant collected by a treatment with 1% Triton X-100 (Sigma, USA) and a reaction for 1 hour at 37° C. was used to measure the absorbance. By setting the resulting absorbance value at 100%, the hemolytic activity of each peptide was calculated using the following mathematical formula 1. Erythrocyte disrupting ability (hemolysis) (%)=(Absorbance A−Absorbance B)/(Absorbance C−Absorbance B)×100 [Mathematical formula 1] (in the above formula, Absorbance A indicates the absorbance of a reaction solution treated with each peptide, in which the absorbance is measured at a wavelength of 414 nm; Absorbance B indicates the absorbance of a reaction solution treated with PBS, in which the absorbance is measured at a wavelength of 414 nm; and Absorbance C indicates the absorbance of a reaction solution treated with 1% Triton X-100, in which the absorbance is measured at a wavelength of 414 nm).

[3] = Stability against trypsin enzyme (RP-HPLC); type: in vitro ADME; settings: 20 nM trypsin, 37° C., read-out: amount of remaining peptide; for remaining at 1 h, 200 μg/mL: reaction for 1 hour; for remaining at 2 h, 200 μg/mL: reaction for 2 hours
Procedure: To determine whether or not the peptides prepared by the method of Example 1 have stability against an enzyme, RP-HPLC (reverse-phase HPLC) was carried out. Specifically, 20 μg of the peptide was reacted with 100 μl of trypsin at concentration of 20 nM for 1 to 2 hours at 37° C. After the reaction, 20 μl of the reaction product was applied to RP-HPLC, and the amount of remaining peptide was examined.

plasmid DNA (pRSETB) = assay: Binding between antimicrobial peptide and DNA (gel electrophoresis); settings: peptide/DNA ratio 0.25:1 to 4:1, 10 minutes at 37° C.
Procedure: To figure out the working mechanism of the synthetic peptides of the present invention for showing the antimicrobial activity, electrophoresis was carried out to examine the possible binding of synthetic peptides, i.e., Hp1404, […], Hp1404-T1d and Hp1404-T1e, to DNA as an internal material of bacteria.
Specifically, after reacting the plasmid DNA (pRSETB, 260 ng) with the peptide at different ratio (i.e., peptide/DNA ratio is as follows for lane number 1 to lane number 8: DNA only, 0.25:1, 0.5:1, 1:1, 1.5:1, 2:1, 3:1, and 4:1. respectively) for 10 minutes at 37° C., they were subjected to electrophoresis using 1% agarose gel followed by ethidium bromide (EtBr) staining and UV visualization.

| Substance | viability at 24 h, 6.25 µM [1] [%] | viability at 24 h, 12.5 µM [1] [%] | viability at 24 h, 25 µM [1] [%] | viability at 24 h, 50 µM [1] [%] | viability at 24 h, 100 µM [1] [%] | viability at 24 h, 200 µM [1] [%] | Minimal inhibitory concentration (L. monocytogenes) [µM] | Minimal inhibitory concentration (E. coli) [µM] | Erythrocyte disrupting ability ([2]; peptide concentration 6.25 μM) [%] | Erythrocyte disrupting ability ([2]; peptide concentration 12.5 μM) [%] | Erythrocyte disrupting ability ([2]; peptide concentration 25 μM) [%] | Erythrocyte disrupting ability ([2]; peptide concentration 50 μM) [%] | Erythrocyte disrupting ability ([2]; peptide concentration 100 μM) [%] | Erythrocyte disrupting ability ([2]; peptide concentration 200 μM, 1 hour at 37° C., relative to 1% Triton X-100) [%] | remaining at 1 h, 200 μg/mL [3] [%] | remaining at 2 h, 200 μg/mL [3] [%] | binding to DNA (plasmid DNA (pRSETB)) |
| --- | --- | --- | --- | --- | --- | --- | --- | --- | --- | --- | --- | --- | --- | --- | --- | --- | --- |
| GILGKLWEGVKSIF-NH2 [Hp1404] | 100 | 100 | 100 | 30.5 | 0.11 | 0 | 3.13 | 6.25 | 0.01 | 2.16 | 11.01 | 55.41 | 92.64 | 100 | 60 | 45 | did not bind to any DNA |
| ILKKLLKKVKKI-NH2 [Hp1404-T1e] | 100 | 100 | 100 | 100 | 100 | 100 | >25 | >25 | 0.10 | 0.28 | 0.41 | 0 | 0.15 |  | ≥ 80 | 80 | bind to DNA |
| ILKKLLKKVKSI-NH2 [Hp1404-T1d] | 100 | 53.9 | 38.9 | 33.1 | 34.6 |  | >25 | >25 | 0 | 0 | 0 | 0 | 0 |  | ≥ 80 | 80 | bind to DNA |
